For series [1], the system named is liver cancer cell line SK-HEP-1. The experiment in a line: SRB cell viability assay, liver cancer cell line SK-HEP-1. As to conditions: Homo sapiens, SK-HEP1; SK-HEP-1, 72 hours; read-out: Cell growth inhibition concentration (IC50). In kind it is cell-based. How it is done: Regarding a lung cancer cell line A549 (Korean Cell line Bank), a colon cancer cell line HCT116 (ATCC), a stomach cancer cell line SNU638 (Korean Cell Line Bank), a liver cancer cell line SK-HEP-1 (Korean Cell line Bank), and a breast cancer cell line MDA-MB-231 (Korean Cell line Bank), a sulforhodamine B (SRB) assay which is a method of measuring cell viability was used for measuring apoptosis effects of Asperphenin.
In detail, 190 μl of a cell suspension at a concentration of 3.5×10^4 cells/ml was inoculated in each well of a 96-well microplate. 0.8 μM, 4 μM, 20 μM, or 100 μM of Asperphenin was added to the cell culture medium, and cultured at a temperature of 37° C. for 72 hours under the condition of 5% CO2. After incubation, 50 μl of 50% (v/v) trichloroacetic acid solution (Sigma Aldrich) was added to each well, and then, incubated at a temperature of 4° C. for 30 minutes, to thereby fix the cells thereto. The fixed cells were washed with water five times, and then, dried in the air.
Next, 80 μl of a 0.4% (w/v) SRB aqueous solution (Sigma Aldrich) containing 1% (v/v) acetic acid (DUKSAN) was added to each well, incubated at room temperature for 1 hour to stain cells therein, and the stained cells washed with water and dried. The cells were dissolved by adding 200 μl of 10 mM Tris (pH 10.0) (Sigma Aldrich) to each well, and then, the number of living cells was calculated by measuring the absorbance thereof at 515 nm. The concentration of the compound inhibiting cell growth to 50% based on the number of the living cells, i.e., 50% inhibition concentration (IC50) was calculated, and the results are shown in Table 3. Here, as a positive control, etoposide (Sigma Aldrich) was used.

The test system of series [2] is apoptosis-related proteins in RKO cells. Nature of the series: Immunoblotting of apoptosis-related proteins. In kind it is cell-based, human. As to the method:
As described in Example 2-3, cells were obtained in a way that Asperphenin B at the concentration of 0.625 μM, 1.25 μM, 2.5 μM, 5 μM, or 10 μM was added to the RKO cells, and then, cultured for 48 hours. However, cells were obtained in a way that Asperphenin B at the concentration of 5 μM was added to the RKO cells, and then, cultured for 0 to 48 hours. Then, proteins were obtained from the obtained cells.
Also, regarding the expression of apoptosis-related proteins, anti-ATM antibody (Cell Signaling Technology), anti-p-Chk (Thr68) antibody (Cell Signaling Technology), anti-Chk antibody (Cell Signaling Technology), anti-p-H2AX antibody (Cell Signaling Technology), anti-p53 antibody (Santa Cruz), anti-Bax antibody (Santa Cruz), anti-BID antibody (Cell Signaling Technology), anti-Caspase-8 antibody (Cell Signaling Technology), anti-Caspase-3 antibody (Cell Signaling Technology), anti-Caspase-9 antibody (Cell Signaling Technology), anti-cleaved PARP antibody (BD Biosciences), and anti-β-actin antibody (Santa Cruz) were used, to thereby perform immunoblotting.

A further series has as its system RKO cells. The experiment in a line: Tumor xenograft mouse model, RKO human colon cancer cell line. The class given is in vivo. As to conditions: nude mouse; for Tumor growth inhibition ratio: 21 days. As to the method: The anticancer effect of […] was verified in a tumor xenograft mouse model to which human colon cancer cell line was transplanted. In detail, RKO cells were subcutaneously injected at a concentration of 3.5×10^6 cells/150 μl into the right side of a nude mouse (Central Lab. Aminol Inc., hairless and small mouse that was tymus free and had dried beard at birth). […] The tumor size was measured by using a digital caliper for 21 days at intervals of 3 to 4 days. Here, as a control, a nude mouse to which […] was not administered was used (n=5).
In general terms: A xenograft is tissue or cells of one species grown in another, often human tumour cells in immunodeficient mice.

A short description of series [3]: Physicochemical characterization.

Molecules are shown by their SMILES.

On to `CCCCCCCCC[C@@H](O)CC(=O)N[C@@H](CC(N)=O)C(=O)N[C@@H](CCC(N)=O)C(=O)N[C@H](CC(=O)c1cc(C)cc(O)c1C(=O)c1c(O)cccc1O)CC(C)C` [Asperphenin B], for which the IC50 in series [1] worked out at 3000 nM. For the same compound, the “Expression of p53 and Bax” value in series [2] (5 μM, 0 to 48 hours, FIG. 6B) was “increased in a time-dependent manner”. The “Expression of p-Chk2 (Thr68), p-H2AX (Ser139), cleaved caspase-8, cleaved caspase-9, cleaved caspase-3, and PARP” value in series [2] (5 μM, 48 hours, FIG. 6B) is “increased”. For the same compound, in series [2] (48 hours, 0.625-10 μM, FIG. 6A), the “Expression of ATM protein” value is listed as “increased in a concentration-dependent manner” and the “Expression of p53 protein” value was “increased in a concentration-dependent manner”. Further, in series [2] (48 hours, FIG. 6A), the “Chk2 and H2AX, sub-regulatory factors of ATM” value was “phosphorylated to be activated”; the “Cleavage of Bid, caspase-8, caspase-9, caspase-3 and PARP” value is listed as “induced”; the “Expression of Bax” value is reported as “increased expression”. In the series on RKO cells (4 mg/kg intraperitoneally 3 times a week), the “Tumor growth inhibition ratio” value was determined as 38.9%. Moreover, the “Inhibition of tumor growth” value with RKO cells (4 mg/kg or 8 mg/kg) is “observed in a compound concentration-dependent manner”. Besides, the “Tumor growth inhibition ratio” value in the series with RKO cells (8 mg/kg intraperitoneally 3 times a week) is on record as 68.7%. In addition, in series [3], the “Solubility in organic solvent” value is “well dissolved in a moderate organic solvent, such as methanol and acetone”; the Stability result is listed as “stable at room temperature”.

Values taken from patent US10759831B2, “Peptide compound, production method therefor, and use thereof” (iNtRON Biotechnology, Inc., priority 2014, dated 2020).
